Measured values reported in patent publication US20100137449A1, “SUBSTITUTED 1,3-CYCLOPENTADIONE MULTI-TARGET PROTEIN KINASE MODULATORS OF CANCER, ANGIOGENESIS AND THE INFLAMMATORY PATHWAYS ASSOCIATED THEREWITH” (METAPROTEOMICS, LLC, priority 2007, published 2010).

What was measured:
Assay in all cases: KinaseProfiler Assay
[1] = target: Abl(M351T)(h) (Homo sapiens, UniProt P00519, M351T)
[2] = target: T1, Bmx(h) (Homo sapiens, UniProt P51813)
T1 sequence (P51813 1-675): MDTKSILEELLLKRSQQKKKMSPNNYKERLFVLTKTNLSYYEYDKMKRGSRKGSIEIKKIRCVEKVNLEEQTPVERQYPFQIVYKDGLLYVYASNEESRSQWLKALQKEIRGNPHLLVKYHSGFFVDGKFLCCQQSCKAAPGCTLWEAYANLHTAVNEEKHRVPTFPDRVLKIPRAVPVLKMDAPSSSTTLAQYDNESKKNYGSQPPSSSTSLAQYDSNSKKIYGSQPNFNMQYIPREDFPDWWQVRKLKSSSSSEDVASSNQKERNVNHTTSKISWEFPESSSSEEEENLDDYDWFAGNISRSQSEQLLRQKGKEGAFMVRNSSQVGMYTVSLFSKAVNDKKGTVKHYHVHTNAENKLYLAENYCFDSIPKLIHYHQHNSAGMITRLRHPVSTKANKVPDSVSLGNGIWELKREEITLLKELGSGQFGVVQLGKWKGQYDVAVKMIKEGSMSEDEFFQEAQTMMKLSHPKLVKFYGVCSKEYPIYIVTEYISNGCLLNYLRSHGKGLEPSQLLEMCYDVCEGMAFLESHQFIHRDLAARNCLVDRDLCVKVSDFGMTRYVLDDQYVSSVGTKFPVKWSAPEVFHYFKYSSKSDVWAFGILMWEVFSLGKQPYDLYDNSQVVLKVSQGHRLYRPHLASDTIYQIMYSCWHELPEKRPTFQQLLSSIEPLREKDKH

[3] = target: T2, BrSK2(h) (Homo sapiens, UniProt Q8IWQ3)
T2 sequence (Q8IWQ3 1-736): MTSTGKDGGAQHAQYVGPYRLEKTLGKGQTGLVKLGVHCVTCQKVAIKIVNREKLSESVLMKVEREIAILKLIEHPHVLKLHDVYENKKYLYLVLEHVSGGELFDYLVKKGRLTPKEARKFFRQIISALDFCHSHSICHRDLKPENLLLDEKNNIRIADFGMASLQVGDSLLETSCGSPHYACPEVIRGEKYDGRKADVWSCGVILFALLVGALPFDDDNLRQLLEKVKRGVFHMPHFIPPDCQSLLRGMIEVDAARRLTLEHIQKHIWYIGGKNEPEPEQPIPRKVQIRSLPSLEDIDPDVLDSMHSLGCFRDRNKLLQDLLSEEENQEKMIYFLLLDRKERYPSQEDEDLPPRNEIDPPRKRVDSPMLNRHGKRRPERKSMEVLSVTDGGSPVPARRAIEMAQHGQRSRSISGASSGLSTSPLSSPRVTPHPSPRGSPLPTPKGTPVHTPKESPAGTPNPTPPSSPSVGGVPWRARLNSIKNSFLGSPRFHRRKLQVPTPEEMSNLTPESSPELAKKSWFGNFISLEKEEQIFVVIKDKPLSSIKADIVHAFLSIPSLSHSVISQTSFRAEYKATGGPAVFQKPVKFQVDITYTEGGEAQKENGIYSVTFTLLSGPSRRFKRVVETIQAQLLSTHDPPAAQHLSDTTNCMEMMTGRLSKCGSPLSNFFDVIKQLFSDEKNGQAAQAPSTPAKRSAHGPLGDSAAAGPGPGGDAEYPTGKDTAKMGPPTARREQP

[4] = target: CaMKII(r)
[5] = target: CaMKIδ(h) (Homo sapiens, UniProt Q8IU85)
[6] = target: CK1δ(h) (Homo sapiens, UniProt P48730)
[7] = target: cKit(V654A)(h) (Homo sapiens, UniProt P10721, V654A)
[8] = target: EGFR(T790M, L858R)(h) (Homo sapiens, UniProt P00533, L858R/T790M)
[9] = target: HIPK2(h) (Homo sapiens, UniProt Q9H2X6)
[10] = target: PAK5(h) (Homo sapiens, UniProt Q9P286)
Chain of PAK5(h) (Q9P286 whole entry): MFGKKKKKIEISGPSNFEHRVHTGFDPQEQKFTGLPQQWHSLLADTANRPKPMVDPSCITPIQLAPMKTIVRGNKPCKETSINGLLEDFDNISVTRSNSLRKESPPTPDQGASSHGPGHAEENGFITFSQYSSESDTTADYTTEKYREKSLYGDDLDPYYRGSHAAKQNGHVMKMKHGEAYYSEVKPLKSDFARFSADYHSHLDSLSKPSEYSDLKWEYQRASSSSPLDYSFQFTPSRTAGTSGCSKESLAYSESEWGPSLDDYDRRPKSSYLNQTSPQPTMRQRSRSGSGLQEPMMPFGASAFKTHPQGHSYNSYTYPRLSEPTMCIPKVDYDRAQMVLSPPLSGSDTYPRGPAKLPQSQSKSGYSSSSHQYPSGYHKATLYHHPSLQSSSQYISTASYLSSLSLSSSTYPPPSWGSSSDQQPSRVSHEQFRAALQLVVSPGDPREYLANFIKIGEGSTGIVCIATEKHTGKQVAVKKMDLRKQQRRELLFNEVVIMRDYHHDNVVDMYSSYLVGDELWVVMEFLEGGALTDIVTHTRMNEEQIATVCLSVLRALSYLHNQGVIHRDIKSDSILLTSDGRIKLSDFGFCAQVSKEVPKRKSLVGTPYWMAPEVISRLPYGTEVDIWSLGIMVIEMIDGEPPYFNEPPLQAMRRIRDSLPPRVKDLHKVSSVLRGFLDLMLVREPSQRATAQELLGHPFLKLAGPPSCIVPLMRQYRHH

Chain of CK1δ(h) (P48730 whole entry): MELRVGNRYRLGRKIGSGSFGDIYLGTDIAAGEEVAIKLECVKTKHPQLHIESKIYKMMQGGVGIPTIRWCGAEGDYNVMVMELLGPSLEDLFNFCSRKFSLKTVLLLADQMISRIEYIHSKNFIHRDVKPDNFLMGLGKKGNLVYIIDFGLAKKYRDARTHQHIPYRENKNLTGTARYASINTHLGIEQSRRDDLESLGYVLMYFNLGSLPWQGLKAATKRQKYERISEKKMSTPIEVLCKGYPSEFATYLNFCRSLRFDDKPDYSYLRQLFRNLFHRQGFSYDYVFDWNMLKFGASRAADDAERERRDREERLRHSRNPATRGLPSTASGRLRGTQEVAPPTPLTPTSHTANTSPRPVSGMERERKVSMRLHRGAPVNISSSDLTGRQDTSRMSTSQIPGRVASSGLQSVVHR
Chain of cKit(V654A)(h) (P10721 26-976 V654A): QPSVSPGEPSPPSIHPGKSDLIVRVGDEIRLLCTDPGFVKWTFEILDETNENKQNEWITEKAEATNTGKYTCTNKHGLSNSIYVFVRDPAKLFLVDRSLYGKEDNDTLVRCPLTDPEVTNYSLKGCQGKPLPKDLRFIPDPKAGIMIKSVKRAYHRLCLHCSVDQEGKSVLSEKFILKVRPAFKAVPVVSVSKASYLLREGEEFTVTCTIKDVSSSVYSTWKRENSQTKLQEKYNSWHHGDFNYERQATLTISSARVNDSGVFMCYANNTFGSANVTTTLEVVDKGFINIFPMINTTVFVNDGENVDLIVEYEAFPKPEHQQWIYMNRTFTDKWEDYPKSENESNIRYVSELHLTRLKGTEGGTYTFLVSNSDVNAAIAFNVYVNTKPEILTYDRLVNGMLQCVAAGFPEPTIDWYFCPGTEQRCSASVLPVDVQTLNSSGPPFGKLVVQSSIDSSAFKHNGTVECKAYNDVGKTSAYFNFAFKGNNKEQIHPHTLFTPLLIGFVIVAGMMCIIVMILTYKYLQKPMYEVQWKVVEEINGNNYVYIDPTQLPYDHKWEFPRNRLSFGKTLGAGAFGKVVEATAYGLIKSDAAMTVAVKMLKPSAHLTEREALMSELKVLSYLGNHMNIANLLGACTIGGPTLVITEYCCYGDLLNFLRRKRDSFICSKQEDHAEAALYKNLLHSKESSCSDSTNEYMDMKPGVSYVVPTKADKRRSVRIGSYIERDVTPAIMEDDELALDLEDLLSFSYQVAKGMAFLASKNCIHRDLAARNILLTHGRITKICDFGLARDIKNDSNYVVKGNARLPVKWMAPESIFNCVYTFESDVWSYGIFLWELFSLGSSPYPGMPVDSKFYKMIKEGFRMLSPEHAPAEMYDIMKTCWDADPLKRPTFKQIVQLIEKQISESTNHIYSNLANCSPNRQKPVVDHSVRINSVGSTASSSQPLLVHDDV
Chain of HIPK2(h) (Q9H2X6 whole entry): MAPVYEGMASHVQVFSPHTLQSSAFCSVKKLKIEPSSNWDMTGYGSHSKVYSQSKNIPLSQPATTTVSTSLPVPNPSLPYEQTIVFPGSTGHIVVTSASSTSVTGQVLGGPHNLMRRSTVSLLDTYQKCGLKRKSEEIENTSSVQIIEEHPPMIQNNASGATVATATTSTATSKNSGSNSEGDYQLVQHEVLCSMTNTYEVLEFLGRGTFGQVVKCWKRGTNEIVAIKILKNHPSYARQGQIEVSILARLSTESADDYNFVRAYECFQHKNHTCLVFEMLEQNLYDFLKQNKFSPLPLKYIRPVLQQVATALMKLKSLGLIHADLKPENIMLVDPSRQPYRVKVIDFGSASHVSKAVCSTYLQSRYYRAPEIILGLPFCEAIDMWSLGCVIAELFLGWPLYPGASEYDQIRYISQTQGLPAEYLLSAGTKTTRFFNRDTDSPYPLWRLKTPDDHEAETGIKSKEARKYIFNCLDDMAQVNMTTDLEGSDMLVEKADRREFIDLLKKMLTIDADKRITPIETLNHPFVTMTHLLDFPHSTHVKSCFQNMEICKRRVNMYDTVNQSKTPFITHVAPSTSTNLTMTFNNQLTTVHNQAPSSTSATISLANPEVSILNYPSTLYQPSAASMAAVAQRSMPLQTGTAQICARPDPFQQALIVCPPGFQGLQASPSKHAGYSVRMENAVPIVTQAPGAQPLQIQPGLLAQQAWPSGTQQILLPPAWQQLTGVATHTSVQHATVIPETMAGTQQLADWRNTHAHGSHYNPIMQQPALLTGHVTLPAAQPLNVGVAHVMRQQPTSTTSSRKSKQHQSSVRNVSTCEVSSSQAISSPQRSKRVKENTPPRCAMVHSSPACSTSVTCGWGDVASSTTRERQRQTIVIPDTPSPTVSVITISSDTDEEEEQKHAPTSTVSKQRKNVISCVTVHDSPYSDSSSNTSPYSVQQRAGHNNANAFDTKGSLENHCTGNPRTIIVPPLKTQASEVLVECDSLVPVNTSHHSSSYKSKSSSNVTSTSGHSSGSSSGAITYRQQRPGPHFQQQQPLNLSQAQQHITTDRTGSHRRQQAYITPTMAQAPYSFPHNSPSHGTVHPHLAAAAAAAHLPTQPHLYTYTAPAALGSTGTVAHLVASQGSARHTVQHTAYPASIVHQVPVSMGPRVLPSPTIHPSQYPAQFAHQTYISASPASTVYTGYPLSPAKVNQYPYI
Chain of EGFR(T790M, L858R)(h) (P00533 25-1210 T790M/L858R): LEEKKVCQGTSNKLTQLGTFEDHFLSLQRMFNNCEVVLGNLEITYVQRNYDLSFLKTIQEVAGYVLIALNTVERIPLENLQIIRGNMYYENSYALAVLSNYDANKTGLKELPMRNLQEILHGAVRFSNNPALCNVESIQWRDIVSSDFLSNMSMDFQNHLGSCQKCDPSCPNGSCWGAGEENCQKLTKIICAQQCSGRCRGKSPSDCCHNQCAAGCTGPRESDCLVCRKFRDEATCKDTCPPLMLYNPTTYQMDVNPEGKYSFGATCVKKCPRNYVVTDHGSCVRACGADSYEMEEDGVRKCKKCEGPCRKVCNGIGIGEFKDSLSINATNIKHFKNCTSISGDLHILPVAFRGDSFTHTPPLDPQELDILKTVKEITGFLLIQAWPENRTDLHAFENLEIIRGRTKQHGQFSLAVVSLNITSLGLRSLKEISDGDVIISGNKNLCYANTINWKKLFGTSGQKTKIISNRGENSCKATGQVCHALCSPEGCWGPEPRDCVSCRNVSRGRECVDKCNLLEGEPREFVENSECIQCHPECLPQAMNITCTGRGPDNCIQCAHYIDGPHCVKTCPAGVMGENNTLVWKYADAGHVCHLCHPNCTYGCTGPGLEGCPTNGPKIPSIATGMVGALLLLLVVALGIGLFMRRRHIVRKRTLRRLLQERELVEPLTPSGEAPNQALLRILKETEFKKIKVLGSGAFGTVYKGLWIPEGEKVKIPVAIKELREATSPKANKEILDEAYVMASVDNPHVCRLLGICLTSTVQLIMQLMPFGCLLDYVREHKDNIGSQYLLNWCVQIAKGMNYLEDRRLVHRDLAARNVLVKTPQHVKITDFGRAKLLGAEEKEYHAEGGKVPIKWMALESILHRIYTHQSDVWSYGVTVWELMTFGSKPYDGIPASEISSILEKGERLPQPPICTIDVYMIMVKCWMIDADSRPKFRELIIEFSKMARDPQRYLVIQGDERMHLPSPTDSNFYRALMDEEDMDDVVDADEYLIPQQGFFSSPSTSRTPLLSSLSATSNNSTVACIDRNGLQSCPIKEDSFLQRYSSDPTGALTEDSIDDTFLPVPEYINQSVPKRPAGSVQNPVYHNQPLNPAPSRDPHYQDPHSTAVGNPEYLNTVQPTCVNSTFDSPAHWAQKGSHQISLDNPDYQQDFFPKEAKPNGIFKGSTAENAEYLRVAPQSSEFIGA
Chain of CaMKIδ(h) (Q8IU85 whole entry): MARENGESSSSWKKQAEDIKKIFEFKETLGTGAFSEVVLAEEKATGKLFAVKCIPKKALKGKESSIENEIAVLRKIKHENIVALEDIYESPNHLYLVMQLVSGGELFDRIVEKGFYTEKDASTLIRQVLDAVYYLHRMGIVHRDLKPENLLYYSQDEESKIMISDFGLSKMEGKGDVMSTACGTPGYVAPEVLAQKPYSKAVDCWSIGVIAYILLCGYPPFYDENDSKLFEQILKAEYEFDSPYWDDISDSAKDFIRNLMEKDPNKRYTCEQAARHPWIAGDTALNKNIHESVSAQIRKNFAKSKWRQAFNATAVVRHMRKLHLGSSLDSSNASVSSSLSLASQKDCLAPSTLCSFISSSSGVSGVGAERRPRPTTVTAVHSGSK

Structure (SMILES): CC(C)CCC(=O)[C@]1(O)C(O)=C(C(=O)C(C)C)C(=O)[C@H]1CCC(C)C [TH2, tetrahydroiso-cohumulone]
- kinase inhibition ([1]; 1 μg/ml): 92% of control
- kinase inhibition ([1]; 5 μg/ml): 95% of control
- kinase inhibition ([1]; 25 μg/ml): 89% of control
- kinase inhibition ([1]; 50 μg/ml): 75% of control
- kinase inhibition ([1]; 100 μg/ml): 56% of control
- kinase inhibition ([2]; 1 μg/ml): 88% of control
- kinase inhibition ([2]; 5 μg/ml): 90% of control
- kinase inhibition ([2]; 25 μg/ml): 89% of control
- kinase inhibition ([2]; 50 μg/ml): 79% of control
- kinase inhibition ([2]; 100 μg/ml): 61% of control
- kinase inhibition ([3]; 1 μg/ml): 99% of control
- kinase inhibition ([3]; 5 μg/ml): 90% of control
- kinase inhibition ([3]; 25 μg/ml): 84% of control
- kinase inhibition ([3]; 50 μg/ml): 83% of control
- kinase inhibition ([3]; 100 μg/ml): 72% of control
- kinase inhibition ([4]; 1 μg/ml): 105% of control
- kinase inhibition ([4]; 5 μg/ml): 106% of control
- kinase inhibition ([4]; 25 μg/ml): 105% of control
- kinase inhibition ([4]; 50 μg/ml): 91% of control
- kinase inhibition ([4]; 100 μg/ml): 63% of control
- kinase inhibition ([5]; 1 μg/ml): 95% of control
- kinase inhibition ([5]; 5 μg/ml): 88% of control
- kinase inhibition ([5]; 25 μg/ml): 101% of control
- kinase inhibition ([5]; 50 μg/ml): 105% of control
- kinase inhibition ([5]; 100 μg/ml): 98% of control
- kinase inhibition ([6]; 1 μg/ml): 105% of control
- kinase inhibition ([6]; 5 μg/ml): 112% of control
- kinase inhibition ([6]; 25 μg/ml): 108% of control
- kinase inhibition ([6]; 50 μg/ml): 80% of control
- kinase inhibition ([6]; 100 μg/ml): 53% of control
- kinase inhibition ([7]; 1 μg/ml): 100% of control
- kinase inhibition ([7]; 5 μg/ml): 101% of control
- kinase inhibition ([7]; 25 μg/ml): 112% of control
- kinase inhibition ([7]; 50 μg/ml): 88% of control
- kinase inhibition ([7]; 100 μg/ml): 75% of control
- kinase inhibition ([8]; 1 μg/ml): 104% of control
- kinase inhibition ([8]; 5 μg/ml): 109% of control
- kinase inhibition ([8]; 25 μg/ml): 95% of control
- kinase inhibition ([8]; 50 μg/ml): 94% of control
- kinase inhibition ([8]; 100 μg/ml): 82% of control
- kinase inhibition ([9]; 1 μg/ml): 120% of control
- kinase inhibition ([9]; 5 μg/ml): 111% of control
- kinase inhibition ([9]; 25 μg/ml): 115% of control
- kinase inhibition ([9]; 50 μg/ml): 110% of control
- kinase inhibition ([9]; 100 μg/ml): 97% of control
- kinase inhibition ([10]; 1 μg/ml): 106% of control
- kinase inhibition ([10]; 5 μg/ml): 105% of control
- kinase inhibition ([10]; 25 μg/ml): 91% of control
- kinase inhibition ([10]; 50 μg/ml): 93% of control
- kinase inhibition ([10]; 100 μg/ml): 61% of control
